± gives the expanded uncertainty stated by the source.
Legend:
[1] = molar heat capacity at constant pressure; xn = mol fraction of the nth substance listed; conditions: 101 kPa, Liquid, Small sample (50 mg) DSC
[2] = xn = mol fraction of the nth substance listed; conditions: 101 kPa, Liquid, Hot wire method

O=S1(=O)CCCC1 [sulfolane] + O
Conditions	molar heat capacity at constant pressure, [1] [J/K/mol]	thermal conductivity, [2] [W/m/K]
303.15 K, x1 = 0.1	87.62 ± 1.4	0.3861 ± 0.0018
303.15 K, x1 = 0.198	99.49 ± 1.5	0.296 ± 0.0014
303.15 K, x1 = 0.299	112 ± 1.7	0.2563 ± 0.0012
303.15 K, x1 = 0.397	123.4 ± 1.9	0.2358 ± 0.0011
303.15 K, x1 = 0.493	133.8 ± 2.1	0.2206 ± 0.001
303.15 K, x1 = 0.6	144.9 ± 2.2	0.2028 ± 0.001
303.15 K, x1 = 0.699	154.4 ± 2.4	0.1911 ± 0.0009
303.15 K, x1 = 0.8	163.7 ± 2.5	0.1809 ± 0.0009
303.15 K, x1 = 0.899	172.4 ± 2.7	0.1739 ± 0.0009
303.15 K, x1 = 1	181.5 ± 2.8	0.1678 ± 0.0008
313.15 K, x1 = 0.1	88.47 ± 1.4	0.3969 ± 0.0027
313.15 K, x1 = 0.198	100.9 ± 1.6	0.2979 ± 0.002
313.15 K, x1 = 0.299	113.9 ± 1.8	0.2583 ± 0.0018
313.15 K, x1 = 0.397	125.6 ± 1.9	0.2334 ± 0.0017
313.15 K, x1 = 0.493	136.4 ± 2.1	0.22 ± 0.0015
313.15 K, x1 = 0.6	148 ± 2.3	0.2012 ± 0.0015
313.15 K, x1 = 0.699	157.9 ± 2.4	0.1896 ± 0.0013
313.15 K, x1 = 0.8	167.2 ± 2.6	0.1797 ± 0.0013
313.15 K, x1 = 0.899	176 ± 2.7	0.1719 ± 0.0013
313.15 K, x1 = 1	185.1 ± 2.9	0.1656 ± 0.0012
323.15 K, x1 = 0.1	89.1 ± 1.4	0.4026 ± 0.0026
323.15 K, x1 = 0.198	102.2 ± 1.6	0.2965 ± 0.0019
323.15 K, x1 = 0.299	115.3 ± 1.8	0.2558 ± 0.0016
323.15 K, x1 = 0.397	127.5 ± 2	0.2316 ± 0.0016
323.15 K, x1 = 0.493	138.8 ± 2.2	0.2167 ± 0.0014
323.15 K, x1 = 0.6	150.6 ± 2.3	0.1993 ± 0.0013
323.15 K, x1 = 0.699	160.9 ± 2.5	0.1883 ± 0.0013
323.15 K, x1 = 0.8	170.9 ± 2.6	0.1788 ± 0.0011
323.15 K, x1 = 0.899	179.7 ± 2.8	0.1715 ± 0.0011
323.15 K, x1 = 1	188.7 ± 2.9	0.1634 ± 0.0011
333.15 K, x1 = 0.1	89.75 ± 1.4	0.4084 ± 0.0026
333.15 K, x1 = 0.198	103.6 ± 1.6	0.295 ± 0.0019
333.15 K, x1 = 0.299	117.3 ± 1.8	0.2507 ± 0.0016
333.15 K, x1 = 0.397	129.9 ± 2	0.2304 ± 0.0014
333.15 K, x1 = 0.493	141.5 ± 2.2	0.2133 ± 0.0014
333.15 K, x1 = 0.6	153.8 ± 2.4	0.1986 ± 0.0013
333.15 K, x1 = 0.699	164.5 ± 2.5	0.1876 ± 0.0011
333.15 K, x1 = 0.8	174.3 ± 2.7	0.1779 ± 0.0011
333.15 K, x1 = 0.899	183.3 ± 2.8	0.1699 ± 0.0011
333.15 K, x1 = 1	192.3 ± 3	0.1616 ± 0.0011
343.15 K, x1 = 0.1	90.42 ± 1.4	0.4085 ± 0.0025
343.15 K, x1 = 0.198	104.5 ± 1.6	0.2893 ± 0.0017
343.15 K, x1 = 0.299	118.5 ± 1.8	0.2417 ± 0.0014
343.15 K, x1 = 0.397	131.7 ± 2	0.2229 ± 0.0014
343.15 K, x1 = 0.493	143.5 ± 2.2	0.2092 ± 0.0013
343.15 K, x1 = 0.6	155.8 ± 2.4	0.1966 ± 0.0012
343.15 K, x1 = 0.699	166.4 ± 2.6	0.1852 ± 0.0011
343.15 K, x1 = 0.8	176.4 ± 2.7	0.1765 ± 0.0011
343.15 K, x1 = 0.899	185.6 ± 2.9	0.1676 ± 0.0011
343.15 K, x1 = 1	194.3 ± 3	0.1593 ± 0.0011
353.15 K, x1 = 0.1	91.42 ± 1.4	0.4058 ± 0.0023
353.15 K, x1 = 0.198	106.2 ± 1.6	0.287 ± 0.0017
353.15 K, x1 = 0.299	120.8 ± 1.9	0.2399 ± 0.0014
353.15 K, x1 = 0.397	134 ± 2.1	0.2185 ± 0.0012
353.15 K, x1 = 0.493	146.1 ± 2.3	0.204 ± 0.0012
353.15 K, x1 = 0.6	158.8 ± 2.5	0.1921 ± 0.0012
353.15 K, x1 = 0.699	169.6 ± 2.6	0.1817 ± 0.0011
353.15 K, x1 = 0.8	179.9 ± 2.8	0.173 ± 0.001
353.15 K, x1 = 0.899	189.2 ± 2.9	0.1657 ± 0.001
353.15 K, x1 = 1	197.8 ± 3.1	0.1581 ± 0.0009
